Laboratory results taken from patent publication US20260225997A1, “IONIZABLE AMINE LIPIDS” (Intellia Therapeutics, Inc., priority 2018, published 2026).
Like-named read-outs stand apart in the source and are kept apart here.

Legend:
[1] = RNA encapsulation efficiency of LNP (Ribogreen fluorescence assay); assay type: physicochemical
Outline: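 LNP samples diluted in 1× TE buffer with 0.2% Triton X-100 (total RNA) or without it (free RNA), stained with RiboGreen for ~10 min at room temperature in the dark, read at ex 488/em 525 nm against RNA standard curves. Encapsulation efficiency = (Total RNA − Free RNA)/Total RNA.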

B2M = B2M editing in mouse liver by NGS after i.v. LNP delivery of Cas9 mRNA and sgRNA; assay type: in vivo; settings: for Editing (%) B2M liver: 6 days post-dose; for Editing (%) B2M liver / % Editing B2M in mouse liver: G650 1:1; for % Editing B2M in mouse liver: 7 days post-dose
Procedure: Preparations of various LNP compositions were prepared with amine lipids. In assays for percent liver editing in mice, Cas9 mRNA and chemically modified sgRNA were formulated in LNPs, at either a 1:1 w/w ratio or a 1:2 w/w ratio. LNPs are formulated with a composition of a given ionizable lipid (e.g. an amine lipid), DSPC, cholesterol, and PEG-2k-DMG, with a 6.0 N:P ratio.
LNPs were administered to mice by a single dose at 0.1 mg/kg, unless otherwise noted and genomic DNA was isolated for NGS analysis as described below.
CD-1 female mice, ranging from 6-10 weeks of age were used in each study. Animals were weighed and grouped according to body weight for preparing dosing solutions based on group average weight. LNPs were dosed via the lateral tail vein in a volume of 0.2 mL per animal (approximately 10 mL per kilogram body weight). The animals were periodically observed post dose for adverse effects for at least 24 hours post dose. Animals were euthanized at 6 or 7 days by exsanguination via cardiac puncture under isoflurane anesthesia. Blood was collected into serum separator tubes or into tubes containing buffered sodium citrate for plasma as described herein. For studies involving in vivo editing, liver tissue was collected from each animal for DNA extraction and analysis.
Cohorts of mice were measured for liver editing by Next-Generation Sequencing (NGS).
In brief, to quantitatively determine the efficiency of editing at the target location in the genome, genomic DNA was isolated and deep sequencing was utilized to identify the presence of insertions and deletions introduced by gene editing.
PCR primers were designed around the target site (e.g., B2M), and the genomic area of interest was amplified. Additional PCR was performed according to the manufacturer's protocols (Illumina) to add the necessary chemistry for sequencing. The amplicons were sequenced on an Illumina MiSeq instrument. The reads were aligned to the […] after eliminating those having low quality scores. The resulting files containing the reads were mapped to the reference genome (BAM files), where reads that overlapped the target region of interest were selected and the number of wild type reads versus the number of reads which contain an insertion, substitution, or deletion was calculated.
The editing percentage (e.g., the “editing efficiency” or “percent editing”) is defined as the total number of sequence reads with insertions or deletions over the total number of sequence reads, including wild type.
CD-1 female mice were dosed i.v. at 0.1 mpk or 0.3 mpk. […] For animals dosed with G282 targeting TTR, blood and the liver were collected and serum TTR and editing were measured. For animals dosed with G650 targeting B2M, liver was collected and editing was measured.

TTR = assay: Transthyretin (TTR) ELISA analysis of mouse serum after LNP dosing; assay type: in vivo; settings: for response vs control in vivo at 0.1 mg/kg / response vs control in vivo at 0.03 mg/kg: read-out: Serum TTR % TSS
Outline: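 Female CD-1 mice aged 6-10 weeks were grouped by body weight and given LNPs by lateral tail vein injection (0.2 mL per animal, about 10 mL per kilogram). Mice were bled by cardiac puncture under isoflurane into serum separator tubes. Serum was diluted 10,000-fold for the 0.1 mpk dose, and total TTR was quantified with a Mouse Prealbumin (Transthyretin) ELISA Kit following the kit directions.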

[2] = Example 55: 0.1 mpk i.v., 7 days post-dose, G282 1:1
[3] = Example 56: 0.1 mpk i.v., 7 days post-dose, G282

CCCCC/C=C\C/C=C\CCCCCCCC(=O)OCC(COC(=O)CCC(OCCCCCCCC)OCCCCCCCC)COC(=O)OCCCN(CC)CC (stereo not drawn) [Compound 19, 3-((4,4-bis(octyloxy)butanoyl)oxy)-2-(((((3-(diethylamino)propoxy))-carbonyl)oxy)methyl)propyl (9Z,12Z)-octadeca-9,12-dienoate, reference compound]
Encapsulation (%) ([1]; Table 3, Example 52: LNP, Cas9 mRNA + sgRNA (G650) 1:1 w/w, N:P 6.0, Compound 19 50/9/38/3, others 50/10/38.5/1.5): 98%
Encapsulation (%) ([1]; Table 5, Example 53: LNP with gRNA G282 (TTR), 1:1 w/w, N:P 6.0): 99%
Encapsulation (%) ([1]; Table 5, Example 53: LNP with gRNA G650 (B2M), 1:1 w/w, N:P 6.0): 98%
Encapsulation (%) ([1]; Table 8, Example 54: LNP, G650 (B2M) 1:1 w/w, N:P 6.0): 98%
Encapsulation (%) ([1]; Table 10, Example 55: LNP, G282 (TTR) 1:1 w/w, N:P 6.0): 98%
Encapsulation (%) ([1]; Table 12, Example 56: LNP, G282 (TTR), ratio 6.0): 97%
Encapsulation (%) ([1]; Table 14, Example 58: LNP, G282 (TTR) 1:1 w/w, N:P 6.0): 99%
Encapsulation (%) ([1]; Table 16, Example 59: LNP, G282 (TTR) 1:1 w/w, N:P 6.0): 98%
Encapsulation (%) ([1]; Table 18, Example 60: LNP, G502 (TTR), sgRNA:Cas9 mRNA 1:2 w/w, N:P 6.0): 99%
Encapsulation (%) ([1]; Table 20, Example 61: LNP, G282 (TTR) 1:1 w/w, N:P 6.0): 98%
Encapsulation (%) ([1]; Table 22, Example 62: LNP, G282 (TTR), sgRNA:Cas9 mRNA 1:2 w/w, N:P 6.0): 99%
Encapsulation (%) ([1]; Table 24, Example 63: LNP, G282 (TTR) 1:1 w/w, NP 6.0): 98%
Encapsulation (%) ([1]; Table 26, Example 64: LNP, G282 (TTR) 1:1 w/w, N:P 6.0): 98%
Editing (%) of B2M in mouse liver (B2M; Example 52: LNP single dose 0.1 mg/kg i.v., CD-1 female mice, sgRNA G650:Cas9 mRNA 1:1, NGS): 12.0%
Editing (%) B2M liver (B2M; Example 53: 0.1 mpk i.v., CD-1 female mice): 25.5%
Editing (%) B2M liver (B2M; Example 53: 0.3 mpk i.v., CD-1 female mice): 43.4%
dose response of B2M editing in liver (B2M; Example 53 text: 0.1 mpk vs 0.3 mpk): increased editing of B2M in liver significantly between the 0.1 mpk and 0.3 mpk doses
% Editing B2M in mouse liver (B2M; Example 54: 0.1 mpk i.v., CD-1 female mice): 13%
% Editing B2M in mouse liver (B2M; Example 54: 0.3 mpk i.v., CD-1 female mice): 44%
dose response of B2M editing in liver (B2M; Example 54 text: 0.1 mpk vs 0.3 mpk, 7 days): increased editing at the 0.3 mpk dose compared to the 0.1 mpk dose
TSS (serum TTR % TSS) (TTR; Example 53: 0.1 mpk i.v., 6 days post-dose, G282 1:1): 85 % TSS
Serum TTR (TTR; Example 53: 0.1 mpk i.v., CD-1 female mice, 6 days post-dose, G282 1:1): 55 µg/mL
TSS (serum TTR % TSS) (TTR; Example 53: 0.3 mpk i.v., 6 days post-dose, G282 1:1): 3 % TSS
Serum TTR (TTR; Example 53: 0.3 mpk i.v., CD-1 female mice, 6 days post-dose, G282 1:1): 55 µg/mL
Serum TTR (TTR; [2]): 528 µg/mL
Serum TTR (% TSS) (TTR; [2]): 46 % TSS
Serum TTR (TTR; [3]): 865 µg/mL
Serum TTR (% TSS) (TTR; [3]): 108 % TSS
Serum TTR (TTR; Example 59: 0.1 mpk i.v., 7 days post-dose, G282 1:1): 438 µg/mL
Serum TTR (TTR; Example 60: 0.1 mpk i.v., 6 days post-dose, G502 1:2): 517 µg/mL
Serum TTR (TTR; Example 61: 0.1 mpk i.v., 7 days post-dose, G282 1:1): 438 µg/mL
Serum TTR (TTR; Example 62: 0.03 mpk i.v., 7 days post-dose, G282 1:2): 560 µg/mL
Serum TTR (TTR; Example 62: 0.1 mpk i.v., 7 days post-dose, G282 1:2): 414 µg/mL
Serum TTR (TTR; Example 63: 0.03 mpk i.v., 7 days post-dose, G282 1:1): 593.01 µg/mL
Serum TTR (TTR; Example 63: 0.1 mpk i.v., 7 days post-dose, G282 1:1): 134.54 µg/mL
Serum TTR (TTR; Example 64: Dose 0.03 mpk (table) i.v., 7 days post-dose, G282 1:1): 622.0 µg/mL
response vs control in vivo at 0.1 mg/kg (TTR; Mus musculus, iv, 144 h, Example 58: 0.1 mpk i.v., 6 days post-dose, G282 1:1): 59%
response vs control in vivo at 0.1 mg/kg (TTR; Mus musculus, iv, 144 h, Example 60: 0.1 mpk i.v., 6 days post-dose, G502 1:2): 36%
response vs control in vivo at 0.1 mg/kg (TTR; Mus musculus, iv, 168 h, Example 59: 0.1 mpk i.v., 7 days post-dose, G282 1:1): 47%
response vs control in vivo at 0.1 mg/kg (TTR; Mus musculus, iv, 168 h, Example 61: 0.1 mpk i.v., 7 days post-dose, G282 1:1): 34%
response vs control in vivo at 0.03 mg/kg (TTR; Mus musculus, iv, 168 h, Example 62: 0.03 mpk i.v., 7 days post-dose, G282 1:2): 88%
response vs control in vivo at 0.1 mg/kg (TTR; Mus musculus, iv, 168 h, Example 62: 0.1 mpk i.v., 7 days post-dose, G282 1:2): 65%
response vs control in vivo at 0.03 mg/kg (TTR; Mus musculus, iv, 168 h, Example 63: 0.03 mpk i.v., 7 days post-dose, G282 1:1): 73.5%
response vs control in vivo at 0.1 mg/kg (TTR; Mus musculus, iv, 168 h, Example 63: 0.1 mpk i.v., 7 days post-dose, G282 1:1): 16.7%
inhibition in vivo at 0.03 mg/kg (TTR; Mus musculus, iv, 168 h, Example 64: Dose 0.03 mpk (table) i.v., 7 days post-dose, G282 1:1, read-out: Serum TTR (% KD)): -8.6%
